In PubChem BioAssay AID1645867 (Buhrlage Lab, Dana-Farber Cancer Institute and Novartis …, 2021):
pIC50: −log10 of the molar value. Calls of active or inactive are those of the source. The rule behind the calls is not given here.

Target: Ubiquitin carboxyl-terminal hydrolase isozyme L1 (Homo sapiens) (UniProt P09936)
Experiment: UCH-L1 deubiquitylase inhibitors, biochemical concentration-response, hit retest (AID 1645867)
Details: recombinant UCHL1 deubiquitinase activity assay

Ubiquitin carboxyl-terminal hydrolase isozyme L1 (Homo sapiens), sequence (P09936 whole entry, looked up): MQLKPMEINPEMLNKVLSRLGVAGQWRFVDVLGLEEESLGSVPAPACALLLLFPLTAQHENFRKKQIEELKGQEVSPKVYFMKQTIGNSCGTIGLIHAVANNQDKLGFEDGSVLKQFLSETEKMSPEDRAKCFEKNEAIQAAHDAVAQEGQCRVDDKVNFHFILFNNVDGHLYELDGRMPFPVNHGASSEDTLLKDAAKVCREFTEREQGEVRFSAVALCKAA

SMILES | pIC50 | IC50
CCc1[nH]c(=O)cc2cc(OC)c(OC)cc12 | 4.63 | –
CCn1cc2c(n1)c(=O)n(Cc1ccccc1)c(=O)n2CC(=O)Nc1ccc(C)cc1C | – | > 25 µM (inactive)
O=C(COc1ccc(N2CC(C(=O)NCc3ccccc3)CC2=O)cc1)Nc1ccc(F)cc1 (stereo not drawn) | – | > 25 µM (inactive)
N=C1/C(=C/c2cn(Cc3ccccc3F)c3ccccc23)C(=O)N=C2SC(C(F)(F)F)=NN12 | – | > 25 µM (inactive)
CC(C)(C)n1ncc2c(=O)n(CC(=O)N3CCCc4ccccc43)cnc21 | – | > 25 µM (inactive)
CCc1ccc(NC(=O)C2CCN(c3nc4nc[nH]c(=O)c4s3)CC2)cc1 | – | > 25 µM (inactive)
Cc1ccccc1NC(=O)Cc1csc2nc(-c3ccc(F)cc3)cn12 | – | > 25 µM (inactive)
COc1cc(NC(=O)c2ccc3c(c2)OCO3)ccc1-c1cc2ccccc2oc1=O | – | > 25 µM (inactive)
CC(CCc1ccccc1)NCc1c(C(=O)O)n(Cc2ccccc2)c2ccccc12 (stereo not drawn) | – | > 25 µM (inactive)
CC1=C(C)C(c2c(-c3ccc(C)cc3)[nH]c3ccccc23)N(C(C)(C)C)C1=O (stereo not drawn) | – | > 25 µM (inactive)
Cc1sc(N)nc1-c1ccc(C(C)(C)C)cc1 | – | > 25 µM (inactive)
CC(C)Cc1ccc(-c2cc(-c3ccc(C(F)(F)F)cc3)c(C#N)c(=O)[nH]2)cc1 | – | > 25 µM (inactive)
Cn1cc(NC(=O)Nc2cccc(C(F)(F)F)c2)c2ccccc2c1=O | – | > 25 µM (inactive)
C=C(CCC(C)(C)/C=C/CC/C(C)=C/COC(COP(=O)(O)O[C@@H]1OC(C(N)=O)[C@@](C)(O)[C@H](OC(N)=O)C1O[C@@H]1OC(CO[C@@H]2OC(CO)[C@H](O)[C@H](O)C2O)[C@H](O[C@@H]2OC(CO)[C@H](O[C@@H]3OC(C(=O)NC4=C(O)CCC4=O)[C@H](O)[C@H](O)C3O)[C@H](O)C2NC(C)=O)C(O)[C@@H]1NC(C)=O)C(=O)O)CC1C(=C)CCCC1(C)C (stereo partly drawn) | – | > 25 µM (inactive)
O=C(/C=C/c1ccc(Cl)cc1)N(Cc1ccccc1)C1CCS(=O)(=O)C1 (stereo not drawn) | – | > 25 µM (inactive)
Cc1nc(C(=O)NC2(O)C(=O)c3ccccc3C2=O)cs1 | 4.68 | –
CCOc1ccc(NS(=O)(=O)c2ccc(NC(=O)Nc3ccccc3)cc2)cc1 | – | > 25 µM (inactive)
O=C(NCC(c1cccnc1)N1CCOCC1)C1CCCCC1 (stereo not drawn) | – | > 25 µM (inactive)
O=C(Nc1ccc(C(F)(F)F)cc1)C1CC(=O)N(c2ccc3c(c2)OCCO3)C1 (stereo not drawn) | – | > 25 µM (inactive)
COc1ccc(NC(=O)Cn2c(C)cc(=O)n3nc(-c4cccc(C)c4)nc23)cc1 | – | > 25 µM (inactive)
Fc1ccc(NCc2nc3ccccc3n2Cc2ccccc2)cc1 | – | > 25 µM (inactive)
O=C(COc1ccc(Cl)cc1Cl)Nc1ccccc1-c1nc2ccccc2[nH]1 | – | > 25 µM (inactive)

SMILES | pIC50 | IC50
O=c1c(S(=O)(=O)c2cc(F)cc(F)c2)c[nH]c2cc(Cl)ccc12 | – | > 25 µM (inactive)
O=C(Nc1ccccc1-c1nc2ccccc2[nH]1)c1sc2ccccc2c1Cl | – | > 25 µM (inactive)
Cc1cccc(NC(=O)N2C[C@@H]3c4nccn4-c4ccccc4[C@@H]3C2)c1 | – | > 25 µM (inactive)
Cc1nc(C2(NC(=O)Nc3ccc(F)cc3F)CCCC2)no1 | – | > 25 µM (inactive)
COc1ccc(CCn2c(-c3ccccc3)nc3c(c(=O)c4ccccc4n3C)c2=O)cc1OC | – | > 25 µM (inactive)
Cc1c(-c2nsc(NC(=O)c3ccc(Cl)cc3)n2)nnn1-c1ccccc1F | – | > 25 µM (inactive)
Cc1ccc2c(c1)c(=O)c(C(=O)c1ccccc1)cn2CC(=O)Nc1ccc2c(c1)OCO2 | – | > 25 µM (inactive)
Cc1ccc(N(CC(=O)N2CCCc3ccccc32)S(=O)(=O)c2ccc3c(c2)OCCO3)cc1 | – | > 25 µM (inactive)
Cc1ccc(N2CC(c3nc4ccccc4n3CCOc3cccc(C)c3)CC2=O)cc1 (stereo not drawn) | – | > 25 µM (inactive)
O=C(CCCn1c(=O)c2ccccc2n(CC(=O)NCc2ccccc2Cl)c1=O)NCc1ccc2c(c1)OCO2 | – | > 25 µM (inactive)
CC(=O)O[C@@H]1C(=O)C2=C(C(=O)C[C@H]3C(C)(C)C(=O)CC[C@]23C)[C@]2(C)C(=O)C[C@H]([C@H](C)CC(=O)C[C@@H](C)C(=O)O)[C@@]12C | – | > 25 µM (inactive)
COC(=O)c1ccc2c(=O)n(CCCCCC(=O)NCCc3ccc(S(N)(=O)=O)cc3)c(=O)[nH]c2c1 | – | > 25 µM (inactive)
COc1cccc2cc(C(=O)Nc3nc(-c4ccncc4)cs3)oc12 | – | > 25 µM (inactive)
O=C1C=C(O)c2c(O)cccc2C1=O | – | > 25 µM (inactive)
COc1ccc(CNC(=O)c2ccc3c(=O)nc4c(-c5cccc(C)c5)n[nH]n4c3c2)cc1 | – | > 25 µM (inactive)
COc1ccc(OC)c(-c2cn3ccn(-c4ccc(F)c(Cl)c4)c(=O)c3n2)c1 | – | > 25 µM (inactive)
COc1cccc2c1NC(=O)C21CCN(C(=O)Nc2cccc3ccccc23)CC1 | – | > 25 µM (inactive)
Cc1ncc(CO)c2c1Oc1nc(-c3cccc(Cl)c3)nc(SCC(=O)N3CCCCC3)c1C2 | – | > 25 µM (inactive)
O=C(NCc1ccco1)c1ccc(Cn2c(SCc3ccccc3)nc3ccncc32)cc1 | – | > 25 µM (inactive)
CCCCCC(O)c1c(O)cc2c(c1O)C(=O)c1c(O)cc(O)cc1C2=O (stereo not drawn) | – | > 25 µM (inactive)
COc1ccc(CC(=O)Nc2c(NCc3ccccc3)c3ccccc3oc2=O)cc1 | – | > 25 µM (inactive)
CNc1nc2c(c(=O)n1C)CN(C(=O)Nc1cccc3ccccc13)CC2 | – | > 25 µM (inactive)

SMILES | pIC50 | IC50
COc1ccc(NC(=O)Cn2c(=O)n(CCC(=O)NCc3ccccc3)c(=O)c3sccc32)cc1Cl | – | > 25 µM (inactive)
Cc1nc(S(=O)(=O)NC[C@@]23CCC[C@H]2N(C)C(=O)CC3)cn1C | – | > 25 µM (inactive)
Cc1ccc2c(c1)c(=O)c(C(=O)c1ccccc1)cn2CC(=O)Nc1ccccc1 | – | > 25 µM (inactive)
COc1ccc(NC(=O)Cn2c(=O)n(-c3ccc(CC(=O)NCc4ccco4)cc3)c(=O)c3ccccc32)cc1Cl | – | > 25 µM (inactive)
CC(C)c1ccc(C2CC(=O)c3cn[nH]c3C2)cc1 (stereo not drawn) | – | > 25 µM (inactive)
C/C=C/C=C/[C@@H]1Cc2cc(O)cc(O)c2O1 | 4.96 | –
O=C(Nc1ccc(F)cc1)N1C[C@@H]2c3nccn3-c3ccccc3[C@@H]2C1 | – | > 25 µM (inactive)
Cc1cccc(NC(=O)Cn2cccc(S(=O)(=O)N3CCC(C)CC3)c2=O)c1C | – | > 25 µM (inactive)
CC1(C)Cc2nc(N3CCCC3)c(C#N)cc2CS1 | – | > 25 µM (inactive)
O=C(Nc1cnc(-c2cccc(Cl)c2)nc1)C1CCC1 | – | > 25 µM (inactive)
Cc1nn(-c2ccc(F)cc2)c(C)c1S(=O)(=O)N1CCN(c2ccccn2)CC1 | – | > 25 µM (inactive)
O=C(CSc1nnc(C2CC2)n1-c1ccccc1)c1ccc(F)c(F)c1 | – | > 25 µM (inactive)
O=C(Nc1ccc(-c2cn3ccsc3n2)cc1)c1ccc(Cl)c([N+](=O)[O-])c1 | – | > 25 µM (inactive)
Cc1cc(C)cc(NC(=O)C2C3C=CC4(O3)C2C(=O)N(C2CCCCC2)C4C(=O)NC2CCCCC2)c1 (stereo not drawn) | – | > 25 µM (inactive)
CC(c1ccccc1)N1CC(O)=C(c2nc3ccccc3s2)C1=N (stereo not drawn) | – | > 25 µM (inactive)
COC(=O)C1(Cc2ccc(O)cc2)OC(=O)C(O)=C1c1ccc(O)cc1 (stereo not drawn) | 4.72 | –
Cc1ccccc1NC(=O)Cn1c(=O)n(-c2ccc(CC(=O)NCCc3ccccc3)cc2)c(=O)c2sccc21 | – | > 25 µM (inactive)
CCOc1ccc(CC(=O)Nc2ccc(-c3cn4cccnc4n3)cc2)cc1 | – | > 25 µM (inactive)
Cc1ccc(-n2cc(C(=O)NCCCc3ccccc3)nn2)cc1 | – | > 25 µM (inactive)
Cc1ccc(NCc2cc3c(-c4cccc(F)c4)nn(-c4ccccc4)c3[nH]c2=O)cc1C | 4.67 | –
Cc1ccc2nc(CCc3ccc(NS(=O)(=O)c4ccc(F)c(Cl)c4)cc3)[nH]c2c1 | – | > 25 µM (inactive)
CCOc1ccc2c(c1)c(=O)c(C(=O)c1ccccc1)cn2CC(=O)Nc1ccc(OC)cc1 | – | > 25 µM (inactive)

SMILES | pIC50 | IC50
Brc1ccc(Sc2cnns2)cc1 | – | > 25 µM (inactive)
CCC(Sc1cccc(NC(=O)C2CCCCC2)c1)C(=O)Nc1cc([N+](=O)[O-])ccc1C (stereo not drawn) | – | > 25 µM (inactive)
CCOc1ccc(C(c2c(NC(=O)c3ccccc3)sc(C)c2C)N2CCN(CCO)CC2)cc1 (stereo not drawn) | – | > 25 µM (inactive)
CC(C)c1cc(C2CCCN2C(=O)Cc2ccc(Cl)cc2)no1 (stereo not drawn) | – | > 25 µM (inactive)
O=C(Nc1ccc(NC(=O)c2ccccc2O)cc1)Nc1ccc(OCc2ccccc2)cc1 | – | > 25 µM (inactive)
Cc1cc(C(=O)NC2(O)C(=O)c3ccccc3C2=O)n(C)n1 | 4.69 | –
Cc1ccc(C2SCC(=O)Nc3c2c(=O)[nH]n3C2CCCCC2)cc1 (stereo not drawn) | – | > 25 µM (inactive)
O=C1CSC(c2ccc(F)cc2)c2c(n(C3CCCCCC3)[nH]c2=O)N1 (stereo not drawn) | – | > 25 µM (inactive)
COc1ccc(C(=O)Nc2nnc(S(=O)(=O)N3CCCc4ccccc43)s2)cc1OC | – | > 25 µM (inactive)
COc1cc(OC)c(NC(=O)c2cc(-c3ccccn3)n[nH]2)cc1Cl | – | > 25 µM (inactive)
O=C(Nc1c(C(=O)N2CCCCCC2)oc2ccccc12)C1CCCC1 | – | > 25 µM (inactive)
Cc1nc(C2COCCN2C(=O)c2cc(C(C)(C)C)[nH]n2)cc(=O)[nH]1 (stereo not drawn) | – | > 25 µM (inactive)
CC(C)=CCC(O)C1=CC(=O)c2c(O)ccc(O)c2C1=O (stereo not drawn) | 5.51 | –
CC(C)C(=O)Nc1nc2cc(NS(=O)(=O)c3ccccc3)ccc2s1 | – | > 25 µM (inactive)
CCC(C)N1CNc2c(c(=O)[nH]c(=O)n2Cc2ccco2)C1 (stereo not drawn) | – | > 25 µM (inactive)
CCc1ccc(NC(=O)Cn2c(=O)n(Cc3ccccc3)c(=O)c3nn(CC)cc32)cc1 | – | > 25 µM (inactive)
O=[N+]([O-])c1ccc(S(=O)(=O)CC2CSc3nc4ccccc4n32)cc1 (stereo not drawn) | – | > 25 µM (inactive)
COCCNC(=O)c1cc(-c2ccn(C3CCCC3)n2)n2ccccc12 | – | > 25 µM (inactive)
Cc1ccc(C2CN3C(=O)CN(C4CC4)C(=O)[C@]3(C)c3[nH]c4ccccc4c32)cc1 (stereo partly drawn) | – | > 25 µM (inactive)
Nc1ccc(F)c(NS(=O)(=O)c2ccccc2)c1 | – | > 25 µM (inactive)
NC(=O)C1(N2CCCCC2)CCN(CC(=O)Nc2cc(Cl)ccc2Cl)CC1 | – | > 25 µM (inactive)
Cc1ccc(CNC(=O)Cn2c(=O)n(CCCC(=O)NCc3ccc(F)cc3)c(=O)c3ccccc32)cc1 | – | > 25 µM (inactive)
